Patent publication US10729680B2, “5-substituted 2-(morpholin-4-yl)-1,7-naphthyridines” (BAYER PHARMA AKTIENGESELLSCHAFT, priority 2016, dated 2020)

Columns and labels:
[1] = target: full-length human ATR protein (ATR/ATRIP) (Homo sapiens (Human), UniProt Q13535); assay: Binding Assay ATR (TR-FRET, tracer A displacement); conditions: displacement of fluorescent tracer A from GST-ATR/ATRIP
Excerpt: To determine of binding activity of the test compounds, full-length human ATR protein was expressed and purified together with ATRIP as described above. Furthermore, a fluorescently labelled compound (tracer A as described above) was used as a tracer molecule. Detection of the binding event of the tracer was achieved by time-resolved fluorescence energy transfer (TR-FRET). We used an anti-GST-Terbium antibody (CisBio) that binds to the GST-tag at the N-terminus of ATR-kinase. Excitation of Terbium with 337 nm light results in emission of fluorescent light with 545 nm. In case a tetrameric complex has formed (antiGST-Tb+GST-ATR+Strp2-ATRIP+tracer), part of the energy will be transferred from the Terbium to the fluorophore that itself emits light of 570 nm. Displacement of the fluorescent tracer by a test compound leads to a reduction of the TR-FRET-signal.
For the assay 50 nl of a 100-fold concentrated solution of the test compound in DMSO was pipetted into a black low volume 384 well microtiter plate (MTP, Greiner Bio-One, Frickenhausen, Germany). To prepare the ATR-working solution, ATR/ATRIP stock solution was diluted in assay buffer [50 mM HEPES (pH 7.0), 10 mM MgCl2, 1 mM DTT, 0.01% (w/v) Igepal, 0.01% (w/v) BSA] to 4.2 nM protein concentration (concentration may vary from lot to lot of protein preparation). AntiGST-Tb antibody was diluted to 4.2 nM. The ATR-working solution was incubated for 30 min at 22° C. prior to dispensing to pre-form the complex of antiGST-Tb+GST-ATR+ATRIP. Then, 3 μl of the ATR-working solution were added to the test compound and the mixture was incubated for 10 min at 22° C. to allow pre-binding of the test compounds to ATR/ATRIP. Then, 2 μl of a 100 nM solution of tracer A in assay buffer were added to the ATR-working solution. The resulting mixture was incubated for 30 min at 22° C. The measurement of the TR-FRET signal was performed in a standard HTRF-compatible MTP reader instrument (e.g. BMG Pherastar) by recording the fluorescence emissions at 545 nm and 570 nm after excitation at 337-350 nm. The ratio between emission at 570 nm divided by emission at 545 nm was calculated to give the well ratio. The experimental data (well ratios) were normalised by the following way: positive control contained ATR-working solution plus tracer A solution (=0% inhibition), the negative control contained all components except GST-ATR/ATRIP (=100% inhibition). Usually the compounds were tested on the same MTP in 11 different concentrations in the range of 20 μM to 0.1 nM (20 μM, 5.9 μM, 1.7 μM, 0.51 μM, 0.15 μM, 44 nM, 13 nM, 3.8 nM, 1.1 nM, 0.33 nM and 0.1 nM). The dilution series were prepared separately before the assay on the level of the 100 fold concentrated solutions in DMSO by serial 1:3.4 dilutions in duplicate values for each concentration. IC50 values were calculated by a 4 parameter fit using standard software (GraphPad prism or equivalent).

[2] = tested on: HeLa cells; assay: Proliferation assay (HeLa, crystal violet); type: cell-based; conditions: Homo sapiens, 96 h, 4 days incubation, crystal violet staining, read-out: Inhibition of HeLa cell proliferation
Experimental: Human tumour cells were originally obtained from the American Type Culture Collection (ATCC), the Deutsche Sammlung von Mikroorganismen und Zellkulturen (DSMZ, German Collection of Microorganisms and Cell Cultures) or Epo GmbH, Berlin.
Adherently growing cells (HeLa, HeLa-MaTu-ADR, HT-144, Lovo, HT-29, NCI-H460, DU145, Caco2, B16F10) were plated out in a density of 1500-4000 cells/measurement point, depending on the rate of growth of the cell line, in a 96-well multititre plate in 200 μl of growth medium (DMEM/HAMS F12, 2 mM L-glutamine, 10% foetal calf serum). After 24 hours, the cells of one plate (zero plate) were dyed with crystal violet (see below), whereas the medium of the other plates was replaced with fresh culture medium (200 μl) to which the test substances were added in various concentrations (0 μM, and also in the range of 0.001-10 μM; the final concentration of the solvent dimethyl sulphoxide was 0.1 or 0.5%). The cells were incubated for 4 days in the presence of the test substances. Cell proliferation was determined by staining the cells with crystal violet: the cells were fixed at room temperature for 15 min by adding 20 μl/measurement point of an 11% strength glutaraldehyde solution. After washing the fixed cells three times with water, the plates were dried at room temperature. The cells were stained by adding 100 μl/measurement point of a 0.1% strength crystal violet solution (pH adjusted to pH 3 by adding acetic acid). After washing the cells three times with water, the plates were dried at room temperature. The dye was dissolved by adding 100 μl/measurement point of a 10% strength acetic acid solution. Absorbance was determined photometrically at a wavelength of 595 nm. The percentage change in cell growth was calculated by normalizing the measured values to the absorbance values of the zero plate (=0%) and the absorbance of the untreated (0 μM) cells (=100%). The IC50 values were determined by means of a four parameter fit.
Inhibition of proliferation of HeLa cells by compounds according to the present invention, determined as described above. All IC50 (inhibitory concentration at 50% of maximal effect) values are indicated in M, “n.t.” means that the compounds have not been tested in the respective assay.

Chain of full-length human ATR protein (ATR/ATRIP) (Q13535 other isoform, or with tags, fused parts or gaps): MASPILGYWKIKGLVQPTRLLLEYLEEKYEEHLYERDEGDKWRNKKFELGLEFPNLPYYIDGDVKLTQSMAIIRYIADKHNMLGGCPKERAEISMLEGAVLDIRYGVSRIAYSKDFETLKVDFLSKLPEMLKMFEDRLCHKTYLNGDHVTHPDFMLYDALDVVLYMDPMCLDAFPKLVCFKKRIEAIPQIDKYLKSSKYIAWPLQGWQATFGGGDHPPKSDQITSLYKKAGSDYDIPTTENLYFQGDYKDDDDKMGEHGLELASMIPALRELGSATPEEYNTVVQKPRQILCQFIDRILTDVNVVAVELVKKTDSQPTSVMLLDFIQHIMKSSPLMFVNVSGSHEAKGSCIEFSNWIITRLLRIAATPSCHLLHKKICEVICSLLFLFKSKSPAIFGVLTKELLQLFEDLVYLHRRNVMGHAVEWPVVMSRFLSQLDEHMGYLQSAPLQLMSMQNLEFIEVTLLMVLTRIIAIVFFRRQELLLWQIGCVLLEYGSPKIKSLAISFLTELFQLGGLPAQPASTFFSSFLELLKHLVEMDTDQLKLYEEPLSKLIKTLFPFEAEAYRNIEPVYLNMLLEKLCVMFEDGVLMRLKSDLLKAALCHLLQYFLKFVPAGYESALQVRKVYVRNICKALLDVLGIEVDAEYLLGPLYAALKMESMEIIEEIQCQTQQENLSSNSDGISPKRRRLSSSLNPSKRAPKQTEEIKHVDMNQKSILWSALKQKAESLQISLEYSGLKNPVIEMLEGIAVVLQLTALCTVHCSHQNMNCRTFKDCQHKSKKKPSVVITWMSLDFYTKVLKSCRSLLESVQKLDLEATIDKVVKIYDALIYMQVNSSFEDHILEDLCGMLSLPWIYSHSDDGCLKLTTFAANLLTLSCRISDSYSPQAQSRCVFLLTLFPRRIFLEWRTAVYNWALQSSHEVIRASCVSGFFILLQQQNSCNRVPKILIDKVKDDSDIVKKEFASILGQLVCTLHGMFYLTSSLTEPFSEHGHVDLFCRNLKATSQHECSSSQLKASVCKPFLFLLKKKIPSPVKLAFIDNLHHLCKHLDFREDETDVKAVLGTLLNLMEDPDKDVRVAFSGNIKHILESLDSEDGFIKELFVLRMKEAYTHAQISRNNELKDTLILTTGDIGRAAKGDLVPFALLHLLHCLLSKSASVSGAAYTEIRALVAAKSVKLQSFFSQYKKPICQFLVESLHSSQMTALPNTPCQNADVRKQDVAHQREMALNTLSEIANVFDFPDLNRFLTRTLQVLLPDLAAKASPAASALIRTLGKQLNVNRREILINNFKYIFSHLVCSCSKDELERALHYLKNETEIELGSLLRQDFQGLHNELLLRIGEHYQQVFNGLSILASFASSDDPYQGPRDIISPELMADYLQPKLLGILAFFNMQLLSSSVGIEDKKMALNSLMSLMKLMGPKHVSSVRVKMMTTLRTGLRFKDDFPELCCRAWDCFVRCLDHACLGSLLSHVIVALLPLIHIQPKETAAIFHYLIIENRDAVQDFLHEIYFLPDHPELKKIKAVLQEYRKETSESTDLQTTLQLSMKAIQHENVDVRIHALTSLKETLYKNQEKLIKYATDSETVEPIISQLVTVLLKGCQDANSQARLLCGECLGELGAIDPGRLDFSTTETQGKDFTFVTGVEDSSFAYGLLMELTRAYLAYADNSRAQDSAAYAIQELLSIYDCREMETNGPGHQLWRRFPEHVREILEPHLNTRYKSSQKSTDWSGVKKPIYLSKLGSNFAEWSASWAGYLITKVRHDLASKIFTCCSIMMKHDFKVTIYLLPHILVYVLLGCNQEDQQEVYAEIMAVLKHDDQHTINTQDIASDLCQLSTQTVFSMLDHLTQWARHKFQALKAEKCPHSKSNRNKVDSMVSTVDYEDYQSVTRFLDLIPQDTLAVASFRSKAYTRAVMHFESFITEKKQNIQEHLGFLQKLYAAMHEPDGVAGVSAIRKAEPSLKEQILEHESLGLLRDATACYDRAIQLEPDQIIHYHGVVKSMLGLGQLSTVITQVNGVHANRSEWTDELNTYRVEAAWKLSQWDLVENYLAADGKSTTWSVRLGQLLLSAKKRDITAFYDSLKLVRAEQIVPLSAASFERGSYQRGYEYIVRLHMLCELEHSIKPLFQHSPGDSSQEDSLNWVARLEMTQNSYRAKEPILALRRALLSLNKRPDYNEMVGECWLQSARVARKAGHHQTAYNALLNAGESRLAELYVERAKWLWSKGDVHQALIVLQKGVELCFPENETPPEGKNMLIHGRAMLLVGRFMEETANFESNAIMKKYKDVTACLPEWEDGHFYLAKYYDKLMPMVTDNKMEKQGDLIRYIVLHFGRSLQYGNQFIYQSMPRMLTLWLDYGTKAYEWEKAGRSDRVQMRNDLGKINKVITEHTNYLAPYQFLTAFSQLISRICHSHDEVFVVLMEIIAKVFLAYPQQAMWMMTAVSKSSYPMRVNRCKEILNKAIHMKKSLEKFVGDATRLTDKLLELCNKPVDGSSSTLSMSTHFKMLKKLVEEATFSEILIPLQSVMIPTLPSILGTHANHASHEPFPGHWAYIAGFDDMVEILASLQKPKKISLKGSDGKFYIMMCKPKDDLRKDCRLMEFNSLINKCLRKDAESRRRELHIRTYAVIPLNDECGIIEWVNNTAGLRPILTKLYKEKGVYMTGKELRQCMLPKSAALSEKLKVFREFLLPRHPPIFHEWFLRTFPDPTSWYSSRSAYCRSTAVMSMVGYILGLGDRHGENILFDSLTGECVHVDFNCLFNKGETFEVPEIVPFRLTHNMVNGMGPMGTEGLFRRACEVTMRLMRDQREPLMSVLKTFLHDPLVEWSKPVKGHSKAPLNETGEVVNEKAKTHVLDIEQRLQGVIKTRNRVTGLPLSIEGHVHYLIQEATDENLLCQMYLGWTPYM
Chain of full-length human ATR protein (ATR/ATRIP) (Q8WXE1 other isoform, or with tags, fused parts or gaps partner): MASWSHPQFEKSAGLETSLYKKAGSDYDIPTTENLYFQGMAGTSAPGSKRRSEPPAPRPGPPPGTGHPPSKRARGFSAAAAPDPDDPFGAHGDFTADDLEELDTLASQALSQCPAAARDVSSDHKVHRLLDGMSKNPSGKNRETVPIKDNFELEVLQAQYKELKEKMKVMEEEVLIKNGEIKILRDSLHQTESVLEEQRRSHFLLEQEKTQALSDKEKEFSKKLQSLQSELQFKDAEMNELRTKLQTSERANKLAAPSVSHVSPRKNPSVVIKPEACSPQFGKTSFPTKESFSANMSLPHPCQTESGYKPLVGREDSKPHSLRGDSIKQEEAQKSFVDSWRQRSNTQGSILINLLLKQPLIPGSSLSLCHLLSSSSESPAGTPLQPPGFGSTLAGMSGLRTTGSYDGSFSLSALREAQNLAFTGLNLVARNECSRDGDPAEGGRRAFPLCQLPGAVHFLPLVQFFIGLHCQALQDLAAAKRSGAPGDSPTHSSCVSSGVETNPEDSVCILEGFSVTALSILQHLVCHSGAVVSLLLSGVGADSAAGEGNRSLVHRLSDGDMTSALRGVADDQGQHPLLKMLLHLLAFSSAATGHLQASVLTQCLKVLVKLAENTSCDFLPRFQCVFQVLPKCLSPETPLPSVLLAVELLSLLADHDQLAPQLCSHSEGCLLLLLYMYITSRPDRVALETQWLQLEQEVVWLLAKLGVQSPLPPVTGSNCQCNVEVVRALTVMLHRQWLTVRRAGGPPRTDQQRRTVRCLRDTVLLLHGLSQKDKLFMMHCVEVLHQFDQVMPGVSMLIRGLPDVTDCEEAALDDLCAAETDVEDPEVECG

## Cc1cnc(-c2ccn[nH]2)c2nc(N3CCOC[C@H]3C)cc(OC(C)C)c12 [Example 1, 5-methyl-2-[(3R)-3-methylmorpholin-4-yl]-4-(propan-2-yloxy)-8-(1H-pyrazol-5-yl)-1,7-naphthyridine]
[1]
  IC50: 25.9 nM
[2]
  IC50: 498 nM

## Cc1cnc(-c2ccn[nH]2)c2nc(N3CCOC[C@H]3C)cc(-c3ccnn3C)c12 [Example 2, 5-methyl-2-[(3R)-3-methylmorpholin-4-yl]-4-(1-methyl-1H-pyrazol-5-yl)-8-(1H-pyrazol-5-yl)-1,7-naphthyridine]
[1]
  IC50: 6.02 nM
[2]
  IC50: 63.4 nM

## Cc1cnc(-c2ccn[nH]2)c2nc(N3CCOC[C@H]3C)cc(-c3ccc4cc[nH]c4c3)c12 [Example 45, 4-(1H-indol-6-yl)-5-methyl-2-[(3R)-3-methylmorpholin-4-yl]-8-(1H-pyrazol-5-yl)-1,7-naphthyridine]
[1]
  IC50: 94.7 nM

## Cc1cnccc1-c1cc(N2CCOC[C@H]2C)nc2c(-c3ccn[nH]3)ncc(C)c12 [Example 46, 5-methyl-2-[(3R)-3-methylmorpholin-4-yl]-4-(3-methylpyridin-4-yl)-8-(1H-pyrazol-5-yl)-1,7-naphthyridine]
[1]
  IC50: 7.78 nM

## Cc1cnc(-c2ccn[nH]2)c2nc(N3CCOC[C@H]3C)cc(-c3ccc(CO)s3)c12 [Example 47, (5-{5-methyl-2-[(3R)-3-methylmorpholin-4-yl]-8-(1H-pyrazol-5-yl)-1,7-naphthyridin-4-yl}thiophen-2-yl)methanol]
[1]
  IC50: 4.09 nM

## Cc1cnc(-c2ccn[nH]2)c2nc(N3CCOC[C@H]3C)cc(-c3ccc(C#N)c(F)c3)c12 [Example 48, 2-fluoro-4-{5-methyl-2-[(3R)-3-methylmorpholin-4-yl]-8-(1H-pyrazol-5-yl)-1,7-naphthyridin-4-yl}benzonitrile]
[1]
  IC50: 23.2 nM

## Cc1cnc(-c2ccn[nH]2)c2nc(N3CCOC[C@H]3C)cc(-c3ccc(F)nc3)c12 [Example 49, 4-(6-fluoropyridin-3-yl)-5-methyl-2-[(3R)-3-methylmorpholin-4-yl]-8-(1H-pyrazol-5-yl)-1,7-naphthyridine]
[1]
  IC50: 28.6 nM

## COc1ncccc1-c1cc(N2CCOC[C@H]2C)nc2c(-c3ccn[nH]3)ncc(C)c12 [Example 50, 4-(2-methoxypyridin-3-yl)-5-methyl-2-[(3R)-3-methylmorpholin-4-yl]-8-(1H-pyrazol-5-yl)-1,7-naphthyridine]
[1]
  IC50: 72.2 nM

## Cc1cnc(-c2ccn[nH]2)c2nc(N3CCOC[C@H]3C)cc(-c3ccc(C(N)=O)cc3)c12 [Example 52, 4-{5-methyl-2-[(3R)-3-methylmorpholin-4-yl]-8-(1H-pyrazol-5-yl)-1,7-naphthyridin-4-yl}benzamide]
[1]
  IC50: 30.2 nM

## Cc1cnc(-c2ccn[nH]2)c2nc(N3CCOC[C@H]3C)cc(-c3ccc(C(=O)N4CCCC4)cc3)c12 [Example 53, (4-{5-methyl-2-[(3R)-3-methylmorpholin-4-yl]-8-(1H-pyrazol-5-yl)-1,7-naphthyridin-4-yl}phenyl)(pyrrolidin-1-yl)methanone]
[1]
  IC50: 27.3 nM

## Cc1cnc(-c2ccn[nH]2)c2nc(N3CCOC[C@H]3C)cc(-c3ccc(C(=O)NCc4ccccc4)cc3)c12 [Example 54, N-benzyl-4-{5-methyl-2-[(3R)-3-methylmorpholin-4-yl]-8-(1H-pyrazol-5-yl)-1,7-naphthyridin-4-yl}benzamide]
[1]
  IC50: 34.6 nM

## Cc1cnc(-c2ccn[nH]2)c2nc(N3CCOC[C@H]3C)cc(-c3cccc(C(=O)N(C)C)c3)c12 [Example 55, N,N-dimethyl-3-{5-methyl-2-[(3R)-3-methylmorpholin-4-yl]-8-(1H-pyrazol-5-yl)-1,7-naphthyridin-4-yl}benzamide]
[1]
  IC50: 40.6 nM

## COCc1cccc(-c2cc(N3CCOC[C@H]3C)nc3c(-c4ccn[nH]4)ncc(C)c23)c1 [Example 56, 4-[3-(methoxymethyl)phenyl]-5-methyl-2-[(3R)-3-methylmorpholin-4-yl]-8-(1H-pyrazol-5-yl)-1,7-naphthyridine]
[1]
  IC50: 62.4 nM

## Cc1cnc(-c2ccn[nH]2)c2nc(N3CCOC[C@H]3C)cc(-c3ccc4c(ccn4C)c3)c12 [Example 57, 5-methyl-4-(1-methyl-1H-indol-5-yl)-2-[(3R)-3-methylmorpholin-4-yl]-8-(1H-pyrazol-5-yl)-1,7-naphthyridine]
[1]
  IC50: 50 nM

## Cc1cnc(-c2ccn[nH]2)c2nc(N3CCOC[C@H]3C)cc(-c3cncc4ccccc34)c12 [Example 58, 4-(isoquinolin-4-yl)-5-methyl-2-[(3R)-3-methylmorpholin-4-yl]-8-(1H-pyrazol-5-yl)-1,7-naphthyridine]
[1]
  IC50: 40 nM

## COc1cncc(-c2cc(N3CCOC[C@H]3C)nc3c(-c4ccn[nH]4)ncc(C)c23)c1 [Example 59, 4-(5-methoxypyridin-3-yl)-5-methyl-2-[(3R)-3-methylmorpholin-4-yl]-8-(1H-pyrazol-5-yl)-1,7-naphthyridine]
[1]
  IC50: 42.6 nM

## Cc1cnc(-c2ccn[nH]2)c2nc(N3CCOC[C@H]3C)cc(-c3cccc(OC(C)C)c3)c12 [Example 60, 5-methyl-2-[(3R)-3-methylmorpholin-4-yl]-4-[3-(propan-2-yloxy)phenyl]-8-(1H-pyrazol-5-yl)-1,7-naphthyridine]
[1]
  IC50: 132 nM

## Cc1ccncc1-c1cc(N2CCOC[C@H]2C)nc2c(-c3ccn[nH]3)ncc(C)c12 [Example 61, 5-methyl-2-[(3R)-3-methylmorpholin-4-yl]-4-(4-methylpyridin-3-yl)-8-(1H-pyrazol-5-yl)-1,7-naphthyridine]
[1]
  IC50: 8.6 nM

## Cc1cnc(-c2ccn[nH]2)c2nc(N3CCOC[C@H]3C)cc(-c3ccc(C(=O)NC(C)(C)C)cc3)c12 [Example 62, N-tert-butyl-4-{5-methyl-2-[(3R)-3-methylmorpholin-4-yl]-8-(1H-pyrazol-5-yl)-1,7-naphthyridin-4-yl}benzamide]
[1]
  IC50: 18.2 nM

## Cc1cnc(-c2ccn[nH]2)c2nc(N3CCOC[C@H]3C)cc(-c3ccc(C(=O)NC4CC4)cc3)c12 [Example 63, N-cyclopropyl-4-{5-methyl-2-[(3R)-3-methylmorpholin-4-yl]-8-(1H-pyrazol-5-yl)-1,7-naphthyridin-4-yl}benzamide]
[1]
  IC50: 7.87 nM

## COCc1ccc(-c2cc(N3CCOC[C@H]3C)nc3c(-c4ccn[nH]4)ncc(C)c23)cc1 [Example 65, 4-[4-(methoxymethyl)phenyl]-5-methyl-2-[(3R)-3-methylmorpholin-4-yl]-8-(1H-pyrazol-5-yl)-1,7-naphthyridine]
[1]
  IC50: 12.3 nM

## CNC(=O)c1ccc(-c2cc(N3CCOC[C@H]3C)nc3c(-c4ccn[nH]4)ncc(C)c23)cc1 [Example 66, N-methyl-4-{5-methyl-2-[(3R)-3-methylmorpholin-4-yl]-8-(1H-pyrazol-5-yl)-1,7-naphthyridin-4-yl}benzamide]
[1]
  IC50: 12.9 nM
